Results taken from BindingDB's records for doi:10.1016/s0960-894x(99)00014-1 (Zeria Pharmaceutical, 1999).

Assay: In vitro thromboxane A2 antagonistic activity on aggregation of rabbit platelets induced by U-46,619 (4 uM)

Structure (SMILES)	IC50 [nM]
O=C(O)c1ccc2c(c1)CC(CCCCNS(=O)(=O)c1ccc(Cl)cc1)C2 (stereo unspecified) [Sodium; 2-[4-(4-chloro-benzenesulfonylamino)-butyl]-indan-5-carboxylate]	100000
O=C(O)Cc1ccc2c(c1)CC(CNS(=O)(=O)c1ccc(Cl)cc1)C2 (stereo unspecified) [Sodium; {2-[(4-chloro-benzenesulfonylamino)-methyl]-indan-5-yl}-acetate]	360
O=C(O)c1ccc2c(c1)CC(CNS(=O)(=O)c1ccc(Cl)cc1)C2 (stereo unspecified) [Sodium; 2-[(4-chloro-benzenesulfonylamino)-methyl]-indan-5-carboxylate]	1320
O=C(O)Cc1ccc2c(c1)CC(NS(=O)(=O)c1ccc(Cl)cc1)C2 (stereo unspecified) [Sodium; [2-(4-chloro-benzenesulfonylamino)-indan-5-yl]-acetate]	360
O=C(O)Cc1ccc2c(c1)CC(CNS(=O)(=O)c1ccc(Cl)cc1)O2 (stereo unspecified) [Sodium; {2-[(4-chloro-benzenesulfonylamino)-methyl]-2,3-dihydro-benzofuran-5-yl}-acetate]	320
O=C(O)Cc1ccc2c(c1)CC(CNS(=O)(=O)Cc1ccccc1)C2 (stereo unspecified) [Sodium; [2-(phenylmethanesulfonylamino-methyl)-indan-5-yl]-acetate]	> 100000
O=C(O)Cc1ccc2c(c1)CC(CNS(=O)(=O)c1cccnc1)C2 (stereo unspecified) [Sodium; {2-[(pyridine-3-sulfonylamino)-methyl]-indan-5-yl}-acetate]	> 100000
O=C(O)c1ccc2c(c1)CC(CCCNS(=O)(=O)c1ccc(Cl)cc1)C2 (stereo unspecified) [Sodium; 2-[3-(4-chloro-benzenesulfonylamino)-propyl]-indan-5-carboxylate]	6600
O=C(O)Cc1ccc2c(c1)CC(CNS(=O)(=O)c1cccs1)C2 (stereo unspecified) [Sodium; {2-[(thiophene-2-sulfonylamino)-methyl]-indan-5-yl}-acetate]	2810
O=C(O)CCCc1ccc2c(c1)CC(CNS(=O)(=O)c1ccc(Cl)cc1)C2 (stereo unspecified) [Sodium; 4-{2-[(4-chloro-benzenesulfonylamino)-methyl]-indan-5-yl}-butyrate]	1340
O=C(O)Cc1ccc2c(c1)CC(CNS(=O)(=O)C1CCCCC1)C2 (stereo unspecified) [Sodium; [2-(cyclohexanesulfonylamino-methyl)-indan-5-yl]-acetate]	17800
O=C(O)CCc1ccc2c(c1)CC(CNS(=O)(=O)c1ccc(Cl)cc1)C2 (stereo unspecified) [Sodium; 3-{2-[(4-chloro-benzenesulfonylamino)-methyl]-indan-5-yl}-propionate]	160
O=C(O)c1ccc2c(c1)CC(CCNS(=O)(=O)c1ccc(Cl)cc1)C2 (stereo unspecified) [Sodium; 2-[2-(4-chloro-benzenesulfonylamino)-ethyl]-indan-5-carboxylate]	7760

Next, values leading:

IC50 [nM]	Structure (SMILES)
2880	O=C(O)CCCCc1ccc2c(c1)CC(CNS(=O)(=O)c1ccc(Cl)cc1)C2 (stereo unspecified) [Sodium; 5-{2-[(4-chloro-benzenesulfonylamino)-methyl]-indan-5-yl}-pentanoate]
77600	CCCCCS(=O)(=O)NCC1Cc2ccc(CC(=O)O)cc2C1 (stereo unspecified) [Sodium; {2-[(pentane-1-sulfonylamino)-methyl]-indan-5-yl}-acetate]
> 100000	O=C(O)Cc1ccc2c(c1)CC(CCCCNS(=O)(=O)c1ccc(Cl)cc1)C2 (stereo unspecified) [Sodium; {2-[4-(4-chloro-benzenesulfonylamino)-butyl]-indan-5-yl}-acetate]
1020	O=C(O)Cc1ccc2c(c1)CC(CNS(=O)(=O)c1ccccc1)C2 (stereo unspecified) [Sodium; [2-(benzenesulfonylamino-methyl)-indan-5-yl]-acetate]
47900	O=C(O)Cc1ccc2c(c1)CC(CNS(=O)(=O)c1cccc3ccccc13)C2 (stereo unspecified) [Sodium; {2-[(naphthalene-1-sulfonylamino)-methyl]-indan-5-yl}-acetate]
1480	O=C(O)Cc1ccc2c(c1)CC(CCNS(=O)(=O)c1ccc(Cl)cc1)C2 (stereo unspecified) [Sodium; {2-[2-(4-chloro-benzenesulfonylamino)-ethyl]-indan-5-yl}-acetate]
950	O=C(O)Cc1ccc2c(c1)CC(CNS(=O)(=O)c1ccc3ccccc3c1)C2 (stereo unspecified) [Sodium; {2-[(naphthalene-2-sulfonylamino)-methyl]-indan-5-yl}-acetate]
72300	O=C(O)Cc1ccc2c(c1)CC(CCCNS(=O)(=O)c1ccc(Cl)cc1)C2 (stereo unspecified) [Sodium; {2-[3-(4-chloro-benzenesulfonylamino)-propyl]-indan-5-yl}-acetate]
